Measured values: patent publication US9708314B2, “Heterocyclic amide compound” (NISSAN CHEMICAL INDUSTRIES, LTD., priority 2013, dated 2017)

What was measured:
Type in all cases: in vivo
Monochoria vaginalis [1] = assay: Test Example 1: herbicidal activity, application before weed generation in submerged conditions; details: Seventeenth Table; for C: Monochoria vaginalis (herbicidal effect grade): Application herbicide amount 320 g/ha; for C (Monochoria vaginalis) herbicidal ratio grade: application herbicide amount 320 g/ha
Outline: (§1)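 Pre-emergence application to water surface of submerged pots (4 cm depth, alluvial soil) on sowing day, with 2.5-leaf rice transplanted; emulsion diluted to g/ha rates. Grown in greenhouse at 25–30 °C; 0–5 herbicidal/crop-effect score after three weeks.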

Scirpus juncoides [2] = assay: as above; details: Seventeenth Table; for B: Scirpus juncoides (herbicidal effect grade): Application herbicide amount 320 g/ha; for B (Scirpus juncoides) herbicidal ratio grade: application herbicide amount 320 g/ha
Outline: as §1

[3] = system: transplanted Oryza sativa; assay: Test Example 1: effect on crop, application before weed generation in submerged conditions; details: Seventeenth Table; for a: transplanted Oryza sativa (effect on crop grade): Application herbicide amount 320 g/ha; for a (transplanted Oryza sativa) effect on crop grade: application herbicide amount 320 g/ha
Outline: as §1

[4] = system: Echinochloa oryzacola Vasing.; assay: Test Example 2: herbicidal activity, application during weed generation in submerged conditions; details: Eighteenth Table; application herbicide amount 320 g/ha
Outline: (§2)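 Mixed sowings in flooded alluvial soil (4 cm water), greenhouse 25-30 °C; emulsifiable concentrate diluted in water applied to the water surface at the 1-2 leaf stage, rate in g/ha. Effect scored three weeks later on a 0-5 scale (5 = ≥90% herbicidal ratio, 0 = ≤5%).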

Monochoria vaginalis [5] = assay: as above; details: Eighteenth Table; application herbicide amount 320 g/ha
Outline: as §2

Scirpus juncoides [6] = assay: as above; details: Eighteenth Table; application herbicide amount 320 g/ha
Outline: as §2

Amaranthus retroflexus = assay: Test Example 4: herbicidal effect by application to foliage (diluvial soil, plastic box); details: application to foliage; for N: herbicidal effect on Amaranthus retroflexus: application herbicide amount 320 g/ha; for herbicidal effect, N (Amaranthus retroflexus): 320 g/ha
Outline: (§3)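 Plants were grown in sterilized diluvial soil in a greenhouse at 25-30° C for 14 days, then sprayed on stems and leaves with water-diluted emulsion formulation at set rates in g/ha. Weed control and crop injury were scored 3 weeks after treatment on a 0-5 herbicidal-ratio scale, from 0 (≤5%) to 5 (≥90%).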

Stellaria media = assay: as above; details: application to foliage; for P: herbicidal effect on Stellaria media: application herbicide amount 320 g/ha; for herbicidal effect, P (Stellaria media): 320 g/ha
Outline: as §3

Veronica persica = assay: as above; details: for R: herbicidal effect on Veronica persica / herbicidal effect, R (Veronica persica): application to foliage; for R: herbicidal effect on Veronica persica: application herbicide amount 320 g/ha; for herbicidal effect, R (Veronica persica): 320 g/ha
Outline: as §3

SMILES	C: Monochoria vaginalis (herbicidal effect grade) (Monochoria vaginalis [1])	B: Scirpus juncoides (herbicidal effect grade) (Scirpus juncoides [2])	a: transplanted Oryza sativa (effect on crop grade) [3]	A (Echinochloa oryzicola Vasing.) herbicidal ratio grade [4]	C (Monochoria vaginalis) herbicidal ratio grade (Monochoria vaginalis [5])	B (Scirpus juncoides) herbicidal ratio grade (Scirpus juncoides [6])	N: herbicidal effect on Amaranthus retroflexus (Amaranthus retroflexus)	P: herbicidal effect on Stellaria media (Stellaria media)	R: herbicidal effect on Veronica persica (Veronica persica)	C (Monochoria vaginalis) herbicidal ratio grade (Monochoria vaginalis [1])	B (Scirpus juncoides) herbicidal ratio grade (Scirpus juncoides [2])	a (transplanted Oryza sativa) effect on crop grade [3]	herbicidal effect, N (Amaranthus retroflexus) (Amaranthus retroflexus)	herbicidal effect, P (Stellaria media) (Stellaria media)	herbicidal effect, R (Veronica persica) (Veronica persica)	R (Veronica persica; Application herbicide amount 320 g/ha)
Cc1nnc(NC(=O)c2ccc(C(F)(F)F)n3c(CC(F)(F)F)nnc23)o1 [1-162]	0 (Herbicidal ratio of 5% or less (almost no effect))	2 (Herbicidal ratio of 20% or more and less than 40%)	0 (Herbicidal ratio of 5% or less (almost no effect))	3 (Herbicidal ratio of 40% or more and less than 70%)	0 (Herbicidal ratio of 5% or less (almost no effect))	1 (Herbicidal ratio of 5% or more and less than 20%)	4 (Herbicidal ratio of 70% or more and less than 90%)	3 (Herbicidal ratio of 40% or more and less than 70%)	3 (Herbicidal ratio of 40% or more and less than 70%)							
CCSc1nnc2c(C(=O)Nc3nnnn3CCOC)ccc(C(F)(F)F)n12 [2-098]				5 (Herbicidal ratio of 90% or more (almost completely withered))	3 (Herbicidal ratio of 40% or more and less than 70%)	4 (Herbicidal ratio of 70% or more and less than 90%)				4 (Herbicidal ratio of 70% or more and less than 90%)	5 (Herbicidal ratio of 90% or more (almost completely withered))	2 (Herbicidal ratio of 20% or more and less than 40%)	5 (Herbicidal ratio of 90% or more (almost completely withered))	5 (Herbicidal ratio of 90% or more (almost completely withered))	4 (Herbicidal ratio of 70% or more and less than 90%)	
Cc1nnc(NC(=O)c2ccc(C(F)(F)F)n3c(CC(=O)NC(C)C)nnc23)o1 [1-061]				0 (Herbicidal ratio of 5% or less (almost no effect))	1 (Herbicidal ratio of 5% or more and less than 20%)	1 (Herbicidal ratio of 5% or more and less than 20%)										5 (Herbicidal ratio of 90% or more (almost completely withered))
CN(CCC#N)c1nnc2c(C(=O)Nc3nnco3)ccc(C(F)(F)F)n12 [1-164]	4 (Herbicidal ratio of 70% or more and less than 90%)	5 (Herbicidal ratio of 90% or more (almost completely withered))	3 (Herbicidal ratio of 40% or more and less than 70%)	4 (Herbicidal ratio of 70% or more and less than 90%)	4 (Herbicidal ratio of 70% or more and less than 90%)	4 (Herbicidal ratio of 70% or more and less than 90%)	5 (Herbicidal ratio of 90% or more (almost completely withered))									
CCSc1nnc2c(C(=O)Nc3ncnn3C)ccc(C(F)(F)F)n12 [4-003]										0 (Herbicidal ratio of 5% or less (almost no effect))	2 (Herbicidal ratio of 20% or more and less than 40%)	0 (Herbicidal ratio of 5% or less (almost no effect))	2 (Herbicidal ratio of 20% or more and less than 40%)	4 (Herbicidal ratio of 70% or more and less than 90%)	2 (Herbicidal ratio of 20% or more and less than 40%)	
Cn1nnnc1NC(=O)c1ccc(C(F)(F)F)n2c(SC3CCCC3)nnc12 [2-096]	4 (Herbicidal ratio of 70% or more and less than 90%)	5 (Herbicidal ratio of 90% or more (almost completely withered))	3 (Herbicidal ratio of 40% or more and less than 70%)	3 (Herbicidal ratio of 40% or more and less than 70%)	3 (Herbicidal ratio of 40% or more and less than 70%)	3 (Herbicidal ratio of 40% or more and less than 70%)							5 (Herbicidal ratio of 90% or more (almost completely withered))	4 (Herbicidal ratio of 70% or more and less than 90%)	3 (Herbicidal ratio of 40% or more and less than 70%)	
Cn1nnnc1NC(=O)c1ccc(C(F)(F)F)n2c(SCc3ccc(Cl)nc3)nnc12 [2-097]	3 (Herbicidal ratio of 40% or more and less than 70%)	4 (Herbicidal ratio of 70% or more and less than 90%)	1 (Herbicidal ratio of 5% or more and less than 20%)	0 (Herbicidal ratio of 5% or less (almost no effect))	2 (Herbicidal ratio of 20% or more and less than 40%)	2 (Herbicidal ratio of 20% or more and less than 40%)							3 (Herbicidal ratio of 40% or more and less than 70%)	4 (Herbicidal ratio of 70% or more and less than 90%)	4 (Herbicidal ratio of 70% or more and less than 90%)	
Cc1nnc(NC(=O)c2ccc(C(F)(F)F)n3c(CC#N)nnc23)o1 [1-168]				2 (Herbicidal ratio of 20% or more and less than 40%)		2 (Herbicidal ratio of 20% or more and less than 40%)	3 (Herbicidal ratio of 40% or more and less than 70%)	5 (Herbicidal ratio of 90% or more (almost completely withered))	5 (Herbicidal ratio of 90% or more (almost completely withered))							
C=CCN(C)c1nnc2c(C(=O)Nc3nnc(C)o3)ccc(C(F)(F)F)n12 [1-166]	2 (Herbicidal ratio of 20% or more and less than 40%)	3 (Herbicidal ratio of 40% or more and less than 70%)	0 (Herbicidal ratio of 5% or less (almost no effect))	2 (Herbicidal ratio of 20% or more and less than 40%)		3 (Herbicidal ratio of 40% or more and less than 70%)	4 (Herbicidal ratio of 70% or more and less than 90%)	4 (Herbicidal ratio of 70% or more and less than 90%)								
C#CCN(C)c1nnc2c(C(=O)Nc3nnco3)ccc(C(F)(F)F)n12 [1-163]	4 (Herbicidal ratio of 70% or more and less than 90%)	4 (Herbicidal ratio of 70% or more and less than 90%)	2 (Herbicidal ratio of 20% or more and less than 40%)	4 (Herbicidal ratio of 70% or more and less than 90%)			4 (Herbicidal ratio of 70% or more and less than 90%)	4 (Herbicidal ratio of 70% or more and less than 90%)	2 (Herbicidal ratio of 20% or more and less than 40%)							
COCCc1nnc2c(C(=O)Nc3nnc(C)o3)ccc(C(F)(F)F)n12 [1-173]				3 (Herbicidal ratio of 40% or more and less than 70%)	2 (Herbicidal ratio of 20% or more and less than 40%)	2 (Herbicidal ratio of 20% or more and less than 40%)	5 (Herbicidal ratio of 90% or more (almost completely withered))	5 (Herbicidal ratio of 90% or more (almost completely withered))	4 (Herbicidal ratio of 70% or more and less than 90%)							
